Test results: patent US20250367209A1 (SOUTHERN RESEARCH INSTITUTE, priority 2022, published 2025)

The compounds below were run against Tau-FynSH3 interaction (Homo sapiens (Human), UniProt P10636) (assay: Tau-FynSH3 AlphaScreen). Conditions: not given.
Assay type: binding
Text: Human Fyn-SH3 domain with GST-tag at the N-terminus and a Strep-tag II ([…]) at the C-terminus (GST-Fyn-SH3-Strep) was cloned into pPR-IBA1 vector (IBA Lifesciences) (Cochran, et al. (2014) J. Biomol. Screen. 19, 1338-1349). Codon-optimized human 4R2N Tau for E. coli expression with a Strep-tag II at the C-terminus (His-Tau-Strep) was cloned into pET-28a(+) vector (Novagen). The constructs were transformed into E. coli BL-21(DE3) competent cells (Novagen). For GST-Fyn-SH3-Strep purification, a single colony was inoculated in Luria-Bertani (LB) broth at 37° C. overnight. 10 mL cell culture was added into 500 mL LB medium and cultured at 37° C. 0.5 mM Isopropyl β-D-1-thiogalactopyranoside (IPTG) was added into the culture when OD600 reached 0.7. Cells were further cultured at 25° C. for 4 hours and harvested. Cell pellet was resuspended in lysis buffer (20 mM Tris pH 7.9, 300 mM NaCl, 1 mM TCEP) with 1 tablet of EDTA-free protease inhibitors (ThermoFisher) and 1 mg/ml lysozyme. Cells were disrupted by sonication and debris was removed by centrifugation at 9500 rpm for 1 hour. Supernatant was loaded onto a glutathione-sepharose column (Cytiva). The column was washed in lysis buffer and protein eluted in lysis buffer containing 25 mM reduced glutathione. For His-Tau-Strep protein purification, cells were inoculated in LB broth medium and cultured at 37° C. overnight. A 10 mL overnight culture was added to 500 mL of auto-induction medium (Studier, F. W. (2005) Protein Expr Purif 41, 207-34) and cells were cultured at 37° C. for about 5 hours. The temperature was lowered to 18° C., and cells were cultured overnight. Cells were harvested and resuspended in lysis buffer with 20 mM imidazole, protease inhibitors, and lysozyme. Cells were disrupted by sonication and cell pellets were spun down at 9500 rpm for 1 hour. Supernatant was loaded onto Ni-NTA column (Cytiva) and the column was washed in lysis buffer with 20 mM imidazole. His-Tau-Strep protein was eluted in lysis buffer containing 400 mM imidazole. Both eluted GST-Fyn-SH3-Strep and His-Tau-Strep protein solutions were passed through G-25 desalting column (Cytiva) with lysis buffer and loaded onto high capacity Strep-Tactin column (IBA Lifesciences). The columns were washed in Buffer W (IBA Life sciences) and proteins were eluted in Buffer E (IBA life sciences). The eluted proteins were passed through G-25 desalting column again. Both GST-Fyn-Strep and His-Tau-Strep proteins were concentrated and diluted 1:1 in ethylene glycol as a cryoprotectant for storage at −80° C.
AlphaScreen was conducted with 10 µg/mL of glutathione donor beads (PerkinElmer, Waltham, MA) and nickel chelate acceptor beads (PerkinElmer) in 10 mM Bis-Tris (pH 7.0), 1 mM TCEP, 0.02% casein, and 0.1% Tween-20. Compounds were plated first followed by addition of one the proteins at 600 nM and incubation for 30 min. The second protein was added and incubated for 30 mn, then the beads were added simultaneously and the final mixture was incubated for 2 hours. Experiments were conducted in 384-well plates (6007290; PerkinElmer) and results were read on a PHERAstar plate reader (BMG Labtech, Cary, NC).
˜50,000 compounds from the Enamine and Southern Research libraries were screened to identify Tau-FynSH3 interaction inhibitors using an AlphaScreen assay (Cochran, et al. (2014) J. Biomol. Screen. 19, 1338-1349). Compounds that were >3 standard deviations above mean inhibition were selected, yielding 1,852 hits (FIG. 1A). […]. These 39 compounds were tested in a live-cell BRET assay to measure Tau-Fyn interaction in cells. […]. Screen. 19, 1338-1349).

Sequence of Tau-FynSH3 interaction (P10636 other isoform, or with tags, fused parts or gaps): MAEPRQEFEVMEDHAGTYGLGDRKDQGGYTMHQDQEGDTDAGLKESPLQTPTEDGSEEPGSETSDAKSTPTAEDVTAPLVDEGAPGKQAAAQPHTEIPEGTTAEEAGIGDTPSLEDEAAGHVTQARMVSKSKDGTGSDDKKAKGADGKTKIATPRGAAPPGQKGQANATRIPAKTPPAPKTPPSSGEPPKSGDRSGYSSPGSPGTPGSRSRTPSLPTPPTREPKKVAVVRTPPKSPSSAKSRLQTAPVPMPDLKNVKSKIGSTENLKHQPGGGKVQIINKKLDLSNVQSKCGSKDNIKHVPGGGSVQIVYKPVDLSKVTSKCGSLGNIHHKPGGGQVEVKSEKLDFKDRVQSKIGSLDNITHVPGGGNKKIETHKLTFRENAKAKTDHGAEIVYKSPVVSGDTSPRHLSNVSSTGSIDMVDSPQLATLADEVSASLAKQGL

Row | SMILES | AlphaScreen activity (in words)
1 | O=C(CN1CCSc2ccccc21)Nc1ncc(-c2ccccn2)o1 [compound 68] | lost activity

Same assay, conditions: Table 2; Tau-FynSH3 inhibitory activity in the AlphaScreen; read-out: IC50

Row | SMILES | IC50 [nM]
2 | O=C(CCN1C(=O)COc2ccccc21)Nc1nnc(-c2ccccn2)[nH]1 [compound 43, 3-(3-Oxo-2,3-DIHYDRO-4H-BENZO[B][1,4]OXAZIN-4-YL)-N-(5-(PYRIDIN-2-YL)-4H-1,2,4-TRIAZOL-3-YL)PROPANAMIDE] | > 100000
3 | O=C(CN1CCSc2ccccc21)Nc1ncc(-c2ccccn2)o1 [compound 68] | > 100000
4 | O=C(CN1C(=O)CCc2ccccc21)Nc1nnc(-c2ccccn2)[nH]1 [compound no. 2, 2-(2-OXO-3,4-DIHYDROQUINOLIN-1(2H)-YL)-N-(5-(PYRIDIN-2-YL)-4H-1,2,4-TRIAZOL-3-YL)ACETAMIDE] | 2720

Same assay, conditions: Table 3

Row | SMILES | Alpha screen IC50 (μM)
5 | O=C(CN1C(=O)CSc2ccccc21)Nc1nnc(-c2cccnc2)[nH]1 [compound 24, 2-(3-OXO-2,3-DIHYDRO-4H-BENZO[B][1,4]THIAZIN-4-YL)-N-(5-(PYRIDIN-3-YL)-4H-1,2,4-TRIAZOL-3-YL)ACETAMIDE] | Inactive
6 | O=C(CN1C(=O)CSc2ccccc21)Nc1nnc(-c2ccncc2)[nH]1 [compound 25, 2-(3-Oxo-2,3-DIHYDRO-4H-BENZO[B][1,4]THIAZIN-4-YL)-N-(5-(PYRIDIN-4-YL)-4H-1,2,4-TRIAZOL-3-YL)ACETAMIDE] | Inactive
7 | O=C1COc2ccccc2N1Cc1nnc(-c2ccccn2)[nH]1 [compound 28, 4-((5-(PYRIDIN-2-YL)-4H-1,2,4-TRIAZOL-3-YL)METHYL)-2H-BENZO[B][1,4]OXAZIN-3(4H)-ONE] | Inactive
8 | O=C1CCc2ccccc2N1Cc1nnc(-c2ccccn2)[nH]1 [compound 29, 1-((5-(PYRIDIN-2-YL)-4H-1,2,4-TRIAZOL-3-YL)METHYL)-3,4-DIHYDROQUINOLIN-2(1H)-ONE] | Inactive
9 | O=C(CCN1C(=O)CSc2ccccc21)Nc1ccccc1C(F)(F)F [compound 36, 3-(3-OXO-2,3-DIHYDRO-4H-BENZO[B][1,4]THIAZIN-4-YL)-N-(2-(TRIFLUOROMETHYL)PHENYL) PROPANAMIDE] | Inactive
10 | O=C(CCN1C(=O)CSc2ccccc21)Nc1ccc(-c2ccccn2)cc1 [compound 38, 3-(3-Oxo-2,3-DIHYDRO-4H-BENZO[B][1,4]THIAZIN-4-YL)-N-(4-(PYRIDIN-2-YL)PHENYL)PROPANAMIDE] | Inactive
11 | O=C(CCN1C(=O)CSc2ccccc21)Nc1ccc(-c2ccccc2)cc1 [compound 39, N-([1,1′-BIPHENYL]-4-YL)-3-(3-Oxo-2,3-DIHYDRO-4H-BENZO[B][1,4]THIAZIN-4-YL)PROPANAMIDE] | Inactive
12 | O=C(CCN1C(=O)CSc2ccccc21)Nc1nnn[nH]1 [compound 40, 3-(3-OXO-2,3-DIHYDRO-4H-BENZO[B][1,4]THIAZIN-4-YL)-N-(1H-TETRAZOL-5-YL)PROPANAMIDE] | Inactive
13 | O=C(CCN1C(=O)CSc2ccccc21)Nc1ccc(-c2ncc[nH]2)cc1 [compound 41, N-(4-(1H-IMIDAZOL-2-YL)PHENYL)-3-(3-Oxo-2,3-DIHYDRO-4H-BENZO[B][1,4]THIAZIN-4-YL)PROPANAMIDE] | Inactive
14 | O=C(CCN1C(=O)CSc2ccccc21)Nc1ccc(-c2cncnc2)cc1 [compound 42, 3-(3-OXO-2,3-DIHYDRO-4H-BENZO[B][1,4]THIAZIN-4-YL)-N-(4-(PYRIMIDIN-5-YL)PHENYL) PROPANAMIDE] | Inactive
15 | O=C(CCN1C(=O)COc2ccccc21)Nc1nnc(-c2ccccn2)[nH]1 [compound 43, 3-(3-Oxo-2,3-DIHYDRO-4H-BENZO[B][1,4]OXAZIN-4-YL)-N-(5-(PYRIDIN-2-YL)-4H-1,2,4-TRIAZOL-3-YL)PROPANAMIDE] | Inactive
16 | O=C(CN1C(=O)CSc2ccccc21)Nc1cccc(C(=O)N2CCOCC2)c1 [compound 44, N-(3-(MORPHOLINE-4-CARBONYL)PHENYL)-2-(3-OXO-2,3-DIHYDRO-4H-BENZO[B][1,4]THIAZIN-4-YL)ACETAMIDE] | Inactive

Same assay, conditions: Table 3; read-out: Alpha screen IC50

Row | SMILES | IC50 [nM]
17 | O=C(CCN1C(=O)CSc2ccc(Cl)cc21)Nc1nnc(-c2ccccn2)[nH]1 [compound 10, 3-(6-CHLORO-3-OXO-2H-BENZO[B][1,4]THIAZIN-4(3H)-YL)-N-(5-(PYRIDIN-2-YL)-4H-1,2,4-TRIAZOL-3-YL)PROPANAMIDE] | 6780
18 | O=C(CCN1C(=O)CSc2cc(C(F)(F)F)ccc21)Nc1nnc(-c2ccccn2)[nH]1 [compound 11, 3-(3-Oxo-7-(TRIFLUOROMETHYL)-2H-BENZO[B][1,4]THIAZIN-4(3H)-YL)-N-(5-(PYRIDIN-2-YL)-4H-1,2,4-TRIAZOL-3-YL)PROPANAMIDE] | 3450
19 | O=C(CN1C(=O)CSc2cc(C(F)(F)F)ccc21)Nc1nnc(-c2ccccn2)[nH]1 [compound 17, 2-(3-OXO-7-(TRIFLUOROMETHYL)-2H-BENZO[B][1,4]THIAZIN-4(3H)-YL)-N-(5-(PYRIDIN-2-YL)-4H-1,2,4-TRIAZOL-3-YL)ACETAMIDE] | 5420
20 | O=c1sc2ccccc2n1Cc1nnc(-c2ccccn2)[nH]1 [compound 30, 3-((5-(PYRIDIN-2-YL)-4H-1,2,4-TRIAZOL-3-YL)METHYL)BENZO[D]THIAZOL-2(3H)-ONE] | 10600
21 | O=C(CN1C(=O)COc2cc(F)ccc21)Nc1nnc(-c2ccccn2)[nH]1 [compound 46, 2-(7-FLUORO-3-OXO-2,3-DIHYDRO-4H-BENZO[B][1,4]OXAZIN-4-YL)-N-(5-(PYRIDIN-2-YL)-4H-1,2,4-TRIAZOL-3-YL)ACETAMIDE] | 2960
22 | O=C(CN1C(=O)CCc2cc(Cl)ccc21)Nc1nnc(-c2ccccn2)[nH]1 [compound 48, 2-(6-CHLORO-2-OXO-3,4-DIHYDROQUINOLIN-1(2H)-YL)-N-(5-(PYRIDIN-2-YL)-4H-1,2,4-TRIAZOL-3-YL)ACETAMIDE] | 1200
23 | COc1ccc2c(c1)N(CC(=O)Nc1nnc(-c3ccccn3)[nH]1)C(=O)CO2 [compound 49, 2-(6-METHOXY-3-OXO-2,3-DIHYDRO-4H-BENZO[B][1,4]OXAZIN-4-YL)-N-(5-(PYRIDIN-2-YL)-4H-1,2,4-TRIAZOL-3-YL)ACETAMIDE] | 1600
24 | COc1ccc2c(c1)N(CC(=O)Nc1nnc(-c3ccccn3)[nH]1)C(=O)CC2 [compound 50, 2-(7-METHOXY-2-OXO-3,4-DIHYDROQUINOLIN-1(2H)-YL)-N-(5-(PYRIDIN-2-YL)-4H-1,2,4-TRIAZOL-3-YL)ACETAMIDE] | 1600
25 | O=C(CN1C(=O)CCc2cc(F)ccc21)Nc1nnc(-c2ccccn2)[nH]1 [compound 51, 2-(6-FLUORO-2-OXO-3,4-DIHYDROQUINOLIN-1(2H)-YL)-N-(5-(PYRIDIN-2-YL)-4H-1,2,4-TRIAZOL-3-YL)ACETAMIDE] | 1600
26 | O=C(CN1C(=O)COc2cc(Cl)ccc21)Nc1nnc(-c2ccccn2)[nH]1 [compound 52, 2-(7-CHLORO-3-OXO-2,3-DIHYDRO-4H-BENZO[B][1,4]OXAZIN-4-YL)-N-(5-(PYRIDIN-2-YL)-4H-1,2,4-TRIAZOL-3-YL)ACETAMIDE] | 1600
27 | Cc1ccc2c(c1)OCC(=O)N2CC(=O)Nc1nnc(-c2ccccn2)[nH]1 [compound 53, 2-(7-METHYL-3-OXO-2,3-DIHYDRO-4H-BENZO[B][1,4]OXAZIN-4-YL)-N-(5-(PYRIDIN-2-YL)-4H-1,2,4-TRIAZOL-3-YL)ACETAMIDE] | 1600
28 | Cc1ccc2c(c1)CCC(=O)N2CC(=O)Nc1nnc(-c2ccccn2)[nH]1 [compound 54, 2-(6-METHYL-2-OXO-3,4-DIHYDROQUINOLIN-1(2H)-YL)-N-(5-(PYRIDIN-2-YL)-4H-1,2,4-TRIAZOL-3-YL)ACETAMIDE] | 1400

Same assay, conditions: compared to compound no. 20

Row | SMILES | lower / reduced AlphaScreen activity
29 | O=C(CN1CCCCC1)Nc1nnc(-c2ccccn2)[nH]1 [compound 65] | 8-10 fold
30 | O=C(CN1CCOCC1)Nc1nnc(-c2ccccn2)[nH]1 [compound 66] | 8-10 fold
